Laboratory results published in patent US10556844B2, “Pyrazole compounds as nitrification inhibitors” (BASF SE, priority 2015, dated 2020).

Test system: nitrification
Experiment: Inhibition of nitrification in field soil (48 well plate, ammonium sulfate, colour reaction read at 540 nm)
Conditions: for IN (best inhibition value obtained for a compound): soil, room temperature, up to 72 hrs
Description: The compounds of the invention have been tested as follows in terms of the inhibition of nitrification:
Soil was sampled fresh from a field (e.g. Limburgerhof), dried and sieved through a 500 μm sieve. Approximately 200 mg of soil were placed into each well of a 48 well plate. Compounds, or DMSO alone, were added at a concentration of 10 ppm, dissolved in 1% DMSO. 6 μmol ammonium sulfate was added per well as well as 4.8 mg NaClO3.
Subsequently, the samples were incubated at room temperature for up to 72 hrs. After the incubation period 64 mg KCl were added and mixed. 25 μl of the supernatant were placed into a fresh plate and 260 μl of a color reaction solution (from Merck Nr 1.11799.0100) were added.
Measurements were taken with a Tecan plate Reader at 540 nm wavelength.
Inhibition is calculated as x=% activity compared to control, and converted to 100-x to give the value of inhibition, rather than activity.

| SMILES | IN (best inhibition value obtained for a compound) (dose of 10 ppm) [%] | other results |
| --- | --- | --- |
| C#CCn1ncc(C(=O)O)c1C [Compound A-42] | 17 | – |
| C#Cc1ccccc1 [Phenylacetylene, phenylacetylene, reference compound] | – | IN (inhibition value) (reference compound, same conditions, dose of 10 ppm): 7% |
| C#CCn1nc(O)c2ccccc21 [Compound A-14] | 59 | – |
| C#CCn1ncc2c1C(=O)c1ccccc1C2=O [Compound A-33] | 44 | – |
| C#CCn1cccn1 [Compound A-19] | 45 | – |
| C=C=Cn1ccc(C)n1 [Compound B-5] | >10 | – |
| C=C=Cn1nccc1C [Compound B-6] | >10 | – |
| C#CCn1nc(C)c(OC(C)=O)c1C [Compound A-44] | – | IN (best inhibition value obtained for a compound) (dose of 5±1 ppm): 59% |
